Data from patent US6229055A, “Synthesis of fluorinated xanthene derivatives” (Molecular Probes, Inc., priority 2000, dated 2001).
Where a name gives a salt, the structure may show the parent alone.

Legend:
[1] = molecular target: T1, Endogenous (Lysosomal) β-galactosidase in NIH 3T3 cells (Mus musculus, UniProt P23780); experiment: Detection of endogenous (lysosomal) β-galactosidase activity in intact cells by flow cytometry; assay type: cell-based; details: 1 μM, 37° C., 30 minutes; for Fluorescence Emission: normalized to FDG, Table 4
T1 construct: Endogenous (Lysosomal) β-galactosidase Activity in Intact Cells; endogenous in cells; host or cells: NIH 3T3
T1 sequence (P23780 30-647): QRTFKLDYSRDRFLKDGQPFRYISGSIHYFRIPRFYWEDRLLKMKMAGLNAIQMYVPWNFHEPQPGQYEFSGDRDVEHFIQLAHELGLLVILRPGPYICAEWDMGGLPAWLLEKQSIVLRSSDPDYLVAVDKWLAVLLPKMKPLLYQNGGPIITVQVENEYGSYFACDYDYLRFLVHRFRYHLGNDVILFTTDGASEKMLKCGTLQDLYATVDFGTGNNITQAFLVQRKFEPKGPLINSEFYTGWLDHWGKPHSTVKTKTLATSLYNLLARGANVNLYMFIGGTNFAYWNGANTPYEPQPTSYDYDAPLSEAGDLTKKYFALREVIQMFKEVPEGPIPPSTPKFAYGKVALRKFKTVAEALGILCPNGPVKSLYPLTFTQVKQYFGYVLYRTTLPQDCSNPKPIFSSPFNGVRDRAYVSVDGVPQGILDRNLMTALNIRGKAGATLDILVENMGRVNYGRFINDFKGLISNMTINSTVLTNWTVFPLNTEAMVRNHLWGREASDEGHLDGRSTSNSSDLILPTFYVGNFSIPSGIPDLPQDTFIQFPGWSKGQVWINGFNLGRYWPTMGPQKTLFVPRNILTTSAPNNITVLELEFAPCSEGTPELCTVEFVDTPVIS
Procedure: NIH 3T3 cells that are not transfected with exogenous β-galactosidase were cultured in Dulbecco's Modified Minimal Essential Medium supplemented with 10% fetal bovine serum and 2 mM L-glutamine. Stock solutions of TFMFDG and TFFDG in phosphate buffered saline (PBS) are added to the cell culture medium to obtain a final dye concentration of 1 μM. The cells are incubated at 37° C. for 30 minutes, put on ice and assayed immediately by flow cytometry using a FACS-Vantage instrument equipped with an argon-ion laser (488 nm excitation). Fluorescence emission is collected using a 515 nm long-pass filter and a single photomultiplier tube.

[2] = molecular target: prostatic acid phosphatase (Homo sapiens, UniProt P15309); experiment: Detection of acid phosphatase activity; assay type: biochemical; details: 10 μM substrate, 0.1 units enzyme, pH 5, excitation 490 nm, emission 515 nm
Sequence of prostatic acid phosphatase (P15309 33-386): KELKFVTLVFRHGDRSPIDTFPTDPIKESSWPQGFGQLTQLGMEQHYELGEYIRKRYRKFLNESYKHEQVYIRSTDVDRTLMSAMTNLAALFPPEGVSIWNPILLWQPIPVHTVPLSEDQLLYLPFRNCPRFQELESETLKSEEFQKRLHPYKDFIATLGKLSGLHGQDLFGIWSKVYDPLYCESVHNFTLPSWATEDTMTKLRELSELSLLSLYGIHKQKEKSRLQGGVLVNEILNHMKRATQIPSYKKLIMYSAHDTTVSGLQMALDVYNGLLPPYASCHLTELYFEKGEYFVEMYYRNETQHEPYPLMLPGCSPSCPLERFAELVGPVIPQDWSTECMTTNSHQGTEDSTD
Procedure: The rate of fluorescent product generation is measured by exciting a solution of 10 μM DFFDP or fluorescein diphosphate (FDP) at 490 nm while monitoring the emission at 515 nm in a fluorometer in the presence of 0.1 units of prostatic acid phosphatase at pH 5. Under these conditions, acid phosphatase produces about a 6.5 times greater change in signal using DFFP than FDP.

[3] = molecular target: T2, acid β-galactosidase from bovine testes (Bos taurus, UniProt Q58D55); experiment: Detection of acid β-galactosidase activity; assay type: biochemical; details: 50 μM substrate, 4.6 nM enzyme, pH 4.5, excitation 490 nm, emission 512 nm
T2 construct: from tissue; host or cells: bovine testes
T2 sequence (Q58D55 28-653): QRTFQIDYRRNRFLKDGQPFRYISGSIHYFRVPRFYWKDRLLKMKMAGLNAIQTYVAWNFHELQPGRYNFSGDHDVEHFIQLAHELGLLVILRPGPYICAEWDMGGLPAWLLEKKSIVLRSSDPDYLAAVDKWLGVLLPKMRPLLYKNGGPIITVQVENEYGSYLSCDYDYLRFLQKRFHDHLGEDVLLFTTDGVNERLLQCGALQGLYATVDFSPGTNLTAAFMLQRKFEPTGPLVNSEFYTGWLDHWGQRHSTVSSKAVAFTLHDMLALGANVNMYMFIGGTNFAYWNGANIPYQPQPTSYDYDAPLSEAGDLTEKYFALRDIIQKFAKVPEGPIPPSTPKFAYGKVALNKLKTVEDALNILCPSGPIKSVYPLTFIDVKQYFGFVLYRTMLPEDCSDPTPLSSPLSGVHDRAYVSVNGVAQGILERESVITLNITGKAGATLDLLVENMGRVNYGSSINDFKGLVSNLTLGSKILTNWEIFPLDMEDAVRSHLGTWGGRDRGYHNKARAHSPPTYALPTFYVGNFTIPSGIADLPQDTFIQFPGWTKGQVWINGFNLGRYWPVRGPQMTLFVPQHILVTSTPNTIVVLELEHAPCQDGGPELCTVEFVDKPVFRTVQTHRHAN
Procedure: The fluorescence resulting from the action of acid β-galactosidase from bovine testes on fluorescein digalactoside (FDG) and DFFDG is compared. The fluorescence increase at 512 nm when excited at 490 nm is measured versus time for 50 μM substrate with 4.6 nM enzyme in assay buffer (200 mM sodium phosphate +75 mM citric acid, pH 4.5). The initial rate of fluorescence production from DFFDG is 3.0 times that obtained using FDG.

[4] = Ca2+ binding affinity of BAPTA conjugate (Calcium Calibration Buffer Kit II)
Procedure: The fluorescence response and dissociation constant of the fluorescent BAPTA conjugates are determined using the Calcium Calibration Buffer Kit II (Molecular Probes, Inc.; Eugene Oreg.), which is based on a method described by Tsien et al. METH. ENZYM. 172, 230 (1989). For example, 1 mg of Compound 103 is dissolved in deionized water and 5 μL is diluted into 3 mL of each of two buffers, which are cross diluted to arrive at a series of Ca^2+ concentrations between zero and 35 μM. Emission spectra of the dye solutions are scanned between dilutions to generate a family of curves. Each of these curves has maximal fluorescence emission at approximately 530 nm with an increase in fluorescence emission intensity with increasing Ca^2+ concentration. This intensity change is plotted against the concentration of free Ca^2+ to give a value for the dissociation constant of the indicator. […] The calculated dissociation constant at 20° C. is 169 nM.

[5] = Spectral properties of selected fluorinated fluoresceins and rhodols; assay type: physicochemical
[6] = Photodecomposition on illumination in fluorometer; assay type: physicochemical; details: % of decreased fluorescence intensity after 33 minutes of illumination in fluorometer at wavelength of maximum excitation
Procedure: *% of decreased fluorescence intensity after 33 minutes of illumination in
fluorometer at wavelength of maximum excitation

[7] = molecular target: Escherichia coli β-galactosidase (Escherichia coli, UniProt P00722); experiment: Labeling β-galactosidase with a fluorinated fluorescein diacetate; details: 3 mg enzyme in PBS pH 7.5, 13.6 μL of 1 mg/mL dye, 1 hour; estimated with ε=85,600 cm^-1 M^-1 at 515 nm
Sequence of Escherichia coli β-galactosidase (P00722 2-1024): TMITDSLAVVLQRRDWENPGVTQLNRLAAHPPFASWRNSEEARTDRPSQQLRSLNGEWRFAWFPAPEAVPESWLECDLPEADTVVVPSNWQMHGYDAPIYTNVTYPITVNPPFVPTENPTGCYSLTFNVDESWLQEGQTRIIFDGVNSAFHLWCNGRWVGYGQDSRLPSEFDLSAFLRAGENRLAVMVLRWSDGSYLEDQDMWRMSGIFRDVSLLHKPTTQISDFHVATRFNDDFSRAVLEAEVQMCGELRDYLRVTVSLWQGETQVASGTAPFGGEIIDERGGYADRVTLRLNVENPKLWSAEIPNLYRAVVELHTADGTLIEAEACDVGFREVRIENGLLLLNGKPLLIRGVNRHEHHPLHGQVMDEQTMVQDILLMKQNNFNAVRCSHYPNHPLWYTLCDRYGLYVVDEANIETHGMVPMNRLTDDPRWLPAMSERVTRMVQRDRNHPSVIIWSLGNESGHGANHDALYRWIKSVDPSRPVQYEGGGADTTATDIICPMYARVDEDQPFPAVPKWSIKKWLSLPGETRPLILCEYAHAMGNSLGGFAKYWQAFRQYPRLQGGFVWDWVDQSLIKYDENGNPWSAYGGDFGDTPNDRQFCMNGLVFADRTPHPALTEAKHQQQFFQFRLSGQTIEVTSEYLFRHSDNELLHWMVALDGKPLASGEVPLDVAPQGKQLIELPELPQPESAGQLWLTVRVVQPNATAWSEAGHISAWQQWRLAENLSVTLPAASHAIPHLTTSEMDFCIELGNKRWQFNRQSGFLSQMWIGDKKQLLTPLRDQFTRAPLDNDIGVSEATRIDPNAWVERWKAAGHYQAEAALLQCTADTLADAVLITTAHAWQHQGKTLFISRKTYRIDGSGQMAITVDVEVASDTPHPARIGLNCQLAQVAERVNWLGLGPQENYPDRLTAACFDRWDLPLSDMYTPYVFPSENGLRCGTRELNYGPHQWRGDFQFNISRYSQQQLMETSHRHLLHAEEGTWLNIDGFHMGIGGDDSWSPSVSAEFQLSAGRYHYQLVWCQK
Procedure: Escherichia coli β-galactosidase (3 mg) in 150 μL phosphate-buffered saline pH 7.5 is treated with 13.6 μL of a 1 mg/mL stock solution of 4,5,6,7-tetrafluorofluorescein diacetate (Compound 25) in DMSO. After 1 hour the pH is raised to 10 with Na2 CO3 for 2 hours to remove the acetates. Unreacted dye is removed on a spin column. The degree of substitution is estimated at 8.6 using κ=85,600 cm^-1 M^-1 at 515 nm.

[8] = pH titration of fluorophores (pKa); details: Table 1
Procedure: The dye of interest is first dissolved in a series of buffers that have each been calibrated using a pH meter. Acetate buffers are typically used in the range of pH 46, and phosphate buffers in the pH range 68. Absorption measurements are made using solutions that are approximately 10 1M in concentration, and fluorescence measurements are made using solutions that are approximately 1 μM in concentration. The absorption or emission data is then plotted versus pH to determine pKa values.

[9] = test system: human lymphoid B-cell culture; experiment: Cell labeling with fluorinated fluorescein diacetates, flow cytometry; assay type: cell-based; details: 1 μM, 37° C., 30 minutes, washed, fixed; compared with FDA after two hours (FIG. 5)
Procedure: Cells from a human lymphoid B-cell culture in RPMI 1640 medium are treated with 1 μM Compound 25 (4,5,6,7-TFFDA), Compound 26 (2',4,5,6,7,7'-HFFDA), or fluorescein diacetate (FDA) at 37° C. for 30 minutes. Following centrifugation and washing in PBS, the pellets are resuspended in RPMI 1640 medium for 15 min, recentrifuged and washed in PBS, fixed with 3.7% formaldehyde in PBS and analyzed by flow cytometry using 488 nm excitation. […] Alternatively, the stained and washed cells are viewed or analyzed without fixation.

[10] = test system: ATP-dependent dye efflux mechanisms in lymphoid-B cell lines; experiment: Dye efflux from labeled cells with and without verapamil or probenecid, flow cytometry; assay type: cell-based
Procedure: Identical batches of lymphoid-B cell lines cells are separately incubated with […] solutions of 4,5,6,7-tetrafluorofluorescein diacetate (Compound 25), 2',7'-dichloro4,5,6,7-tetrafluorofluorescein diacetate (Compound 28), 2',4,5,6,7,7'-hexafluorofluorescein diacetate ([…]) and 2',4',5',7'-tetrafluorofluorescein diacetate. To one set of each cells is added 100 μM verapamil and to another 1 mM probenecid, both of which are known to block ATP-dependent dye efflux mechanisms, as found in multidrug resistant of cells. Without washing, the cells are analyzed for brightness by flow cytometry using 488-nm excitation.

## O=C1OC2(c3ccc(O[C@@H]4O[C@H](CO)[C@H](O)[C@H](O)[C@H]4O)cc3Oc3cc(O[C@@H]4O[C@H](CO)[C@H](O)[C@H](O)[C@H]4O)ccc32)c2ccccc21 [FDG, fluorescein digalactoside, reference compound]
[1]
  Fluorescence Emission: 1.0

## O=C1OC2(c3cc(F)c(OP(=O)(O)O)cc3Oc3cc(OP(=O)(O)O)c(F)cc32)c2ccccc21 [Compound 96, 2',7'-fluorofluorescein Diphosphate, Tetraammonium Salt]
[2]
  change in signal relative to FDP: ~6.5 times

## O=C1OC2(c3cc(F)c(O[C@@H]4O[C@H](CO)[C@H](O)[C@H](O)[C@H]4O)cc3Oc3cc(O[C@@H]4O[C@H](CO)[C@H](O)[C@H](O)[C@H]4O)c(F)cc32)c2ccccc21 [Compound 94, 2',7'-difluorofluorescein, bis-O-galactoside]
[3]
  initial rate of fluorescence production relative to FDG: 3.0 times

## O=C(O)CN(CC(=O)O)c1ccccc1OCCOc1cc(NC(=O)c2ccc3c(c2)C(=O)OC32c3cc(F)c(O)cc3Oc3cc(O)c(F)cc32)ccc1N(CC(=O)O)CC(=O)O [Compound 103]
[4]; Ca^2+ from zero to 35 μM, emission approximately 530 nm
  fluorescence emission intensity increase: approximately 17 fold
[4]; Ca^2+, 20° C., read-out: dissociation constant
  Kd: 169 nM

## O=C1OC2(c3ccc(O[C@@H]4O[C@H](CO)[C@H](O)[C@H](O)[C@H]4O)cc3Oc3cc(O[C@@H]4O[C@H](CO)[C@H](O)[C@H](O)[C@H]4O)ccc32)c2c(F)c(F)c(F)c(F)c21 [Compound 95, 4,5,6,7-tetrafluorofluorescein, bis-O-galactoside]
[1]
  fluorescence signal relative to FDG: 4.1 times
  Fluorescence Emission: 4.1

## O=C1OC2(c3ccc(O)cc3Oc3cc(O)ccc32)c2c(F)c(F)c(F)c(F)c21 [Compound 34, 4,5,6,7-tetrafluorofluorescein]
[5]; absorption maximum
  Abs.: 508 nm
[5]; emission maximum
  Em.: 527 nm
[5]; extinction coefficient, value is ε × 10^-3
  ε × 10^-3: 85.6 cm^-1 M^-1
[5]; fluorescence quantum yield
  Quantum Yield: 0.85
[6]
  photodecomposition: 6.6%
[7]
  protein labeling (degree of substitution): minimal protein labeling
[8]
  pKa: 6.1

## CC(=O)Oc1ccc2c(c1)Oc1cc(OC(C)=O)ccc1C21OC(=O)c2c(F)c(F)c(F)c(F)c21 [Compound 25, 4,5,6,7-tetrafluorofluorescein Diacetate]
[7]
  protein labeling (degree of substitution): 8.6
[9]
  fluorescence of stained cells: significantly higher fluorescence
[10]; 100 μM verapamil
  Mean Fluorescence intensity of labeled cells: 1892
[10]; 1 mM Probenecid
  Mean Fluorescence intensity of labeled cells: 2521
[10]; No drug
  Mean Fluorescence intensity of labeled cells: 732

## CC(=O)Oc1cc2c(cc1F)C1(OC(=O)c3c(F)c(F)c(F)c(F)c31)c1cc(F)c(OC(C)=O)cc1O2 [Compound 27, 2',4,5,6,7,7'-hexafluorofluorescein Diacetate]
[9]
  fluorescence of stained cells: significantly higher fluorescence
[10]; 100 μM verapamil
  Mean Fluorescence intensity of labeled cells: 212
[10]; 1 mM Probenecid
  Mean Fluorescence intensity of labeled cells: 172
[10]; No drug
  Mean Fluorescence intensity of labeled cells: 26.9

## CC(=O)Oc1cc2c(cc1Cl)C1(OC(=O)c3c(F)c(F)c(F)c(F)c31)c1cc(Cl)c(OC(C)=O)cc1O2 [Compound 28, 2',7'-dichloro4,5,6,7-tetrafluorofluorescein Diacetate]
[10]; 100 μM verapamil
  Mean Fluorescence intensity of labeled cells: 110
[10]; 1 mM Probenecid
  Mean Fluorescence intensity of labeled cells: 80.6
[10]; No drug
  Mean Fluorescence intensity of labeled cells: 15.6

## CC(=O)Oc1c(F)cc2c(c1F)Oc1c(cc(F)c(OC(C)=O)c1F)C21OC(=O)c2ccccc21 [2',4',5',7'-TFFDA, 2',4',5',7'-tetrafluorofluorescein diacetate]
[9]
  fluorescence of stained cells: weakly fluorescent
[10]; 100 μM verapamil
  Mean Fluorescence intensity of labeled cells: 14.0
[10]; 1 mM Probenecid
  Mean Fluorescence intensity of labeled cells: 12.8
[10]; No drug
  Mean Fluorescence intensity of labeled cells: 2.9

## COc1c(F)c(F)c2c(c1F)C1(OC2=O)c2ccc(O[C@@H]3O[C@H](CO)[C@H](O)[C@H](O)[C@H]3O)cc2Oc2cc(O[C@@H]3O[C@H](CO)[C@H](O)[C@H](O)[C@H]3O)ccc21 [TFMFDG, 4,5,7-trifluoro-6-methoxyfluorescein Digalactoside]
[1]
  fluorescence signal relative to FDG: 48.1 times
  Fluorescence Emission: 48.1
